Experimental data published in PubChem BioAssay (NCI).
“And” between values parts separate entries of the source, which are not always exact repeats. Equal entries are not always repeated.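 Five compound concentrations were applied to cells in 96-well plates for 48 hours; endpoints were derived by simple linear interpolation of the resulting dose-response curve. At the GI50, growth is halved. TGI: total growth inhibition.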

What was measured:
Test in all cases: DTP human tumour cell line panel, 48 h
[1] = test system: MDA-MB-435
[2] = test system: PC-3 prostate
[3] = test system: HCC-2998 colon
[4] = test system: NCI/ADR-RES ovarian
[5] = test system: TK-10 renal
[6] = test system: NCI-H522 lung
[7] = test system: SF-268 CNS
[8] = test system: ACHN renal
[9] = test system: NCI-H23 lung
[10] = test system: EKVX NSCLC

SMILES	GI50 [1] [µM]	TGI [1] [µM]	GI50 [2] [µM]	TGI [2] [µM]	GI50 [3] [µM]	TGI [3]	GI50 [4] [µM]	TGI [4] [µM]	GI50 [5] [µM]	TGI [5]	GI50 [6] [µM]	TGI [6]	GI50 [7]	TGI [7]	GI50 [8] [µM]	TGI [8]	GI50 [9] [µM]	TGI [9]	TGI [10]	GI50 [10] [µM]
Nc1c(C(=O)c2cccc(C(O)CO)c2)cnn1-c1ccc(F)cc1 (centres undefined)	> 25	> 25	> 25	> 25	> 25	> 25 µM	> 25	> 25	> 25	> 25 µM	> 25	> 25 µM	> 25 µM	> 25 µM	> 25	> 25 µM	> 25	> 25 µM	–	–
COc1cc(Cl)c(CC(=O)c2c[nH]c3ccccc23)cc1OC	–	> 100	–	> 100	–	–	–	> 100	–	> 74 µM	–	–	–	> 100 µM	–	> 100 µM	–	> 100 µM	> 100 µM	–
NC1=NC(SCc2ccccc2CCl)c2ncn(Cc3ccccc3CCl)c2N1 (centres undefined)	1.53	3.28	1.79	3.52	–	–	1.81	4.3	3.29	11.9 µM	–	–	2.01 µM	10.2 µM	2.07	5.45 µM	1.61	3.45 µM	11.6 µM	3.14
Cc1ccc(SSCC(O)C(O)CSSc2ccc(C)cc2)cc1 (centres undefined)	–	–	–	–	–	28.3 µM and 28.9 µM	–	–	–	35.2 µM and 27.7 µM	–	3.38 µM and 3.68 µM	4.6 µM and 10.4 µM	19.1 µM and 29.2 µM	–	23.6 µM and 29.3 µM	–	20.9 µM and 24.1 µM	36 µM and 36.1 µM	–
CCOC(=O)c1c(-c2ccccc2)[n+](=O)c2cc(F)c(F)cc2n1[O-]	1.93	3.6	1.65	3.16	–	–	0.924	2.66	16.6	32 µM	36.5	> 100 µM	1.66 µM	4.07 µM	1.38	2.8 µM	1.42	3.13 µM	3.47 µM	1.73
CN1CCN=C1c1nnn(-c2ccc([N+](=O)[O-])cc2)c1-c1ccccc1	–	–	–	–	–	> 100 µM	–	–	–	> 100 µM	–	> 100 µM	–	> 100 µM	–	> 100 µM	–	> 100 µM	> 100 µM	–
COc1ccc(-c2cc3ccccc3[nH]c2=O)cc1OC	–	–	–	–	–	> 100 µM	–	–	–	> 100 µM	–	> 100 µM	–	> 100 µM	–	> 100 µM	–	> 100 µM	> 100 µM	–
O=C1CC(C2(O)C(=O)Nc3ccc([N+](=O)[O-])cc32)c2ccccc21 (centres undefined)	–	–	–	–	–	44.9 µM	–	–	–	> 100 µM	–	26.3 µM	–	54.7 µM	–	> 100 µM	–	71 µM	> 100 µM	–
O=C1C(Cl)=C(Cl)C(=O)N1c1ccc(Cl)c(Cl)c1Cl	–	–	–	–	–	> 100 µM	–	–	–	> 100 µM	–	28.8 µM	–	> 100 µM	–	> 100 µM	–	> 100 µM	> 100 µM	–
COc1cc(C2c3cc4c(cc3OC(O)C2C)OCO4)cc(OC)c1OC (centres undefined)	–	0.156	–	> 100	–	> 41.8 µM	–	0.504	–	> 100 µM	–	0.713 µM	–	> 58.9 µM	–	> 88.1 µM	–	–	> 100 µM	–
O=S(=O)(/N=S(/Nc1ccccc1)C(F)(F)Cl)c1ccccc1 (centres undefined)	–	> 100	–	> 100	–	–	–	> 100	–	> 100 µM	–	–	–	> 100 µM	–	> 100 µM	–	> 100 µM	> 100 µM	–
COc1cc2c(cc1OC)C(C(CBr)CBr)N(C1CCCC1)CC2 (centres undefined)	–	–	–	–	–	> 100 µM	–	–	–	> 100 µM	–	> 100 µM	–	> 100 µM	–	> 100 µM	–	> 100 µM	> 100 µM	–
O=C1OCC2=C1C(c1cccc(C(F)(F)F)c1)c1cc3c(cc1N2CCO)OCCO3 (centres undefined)	–	–	1.24	> 33.3	1.1	> 33.3 µM	1.11	> 33.3	> 33.3	> 33.3 µM	0.488	2.89 µM	2.54 µM	> 33.3 µM	2.83	> 33.3 µM	1.78	> 33.3 µM	> 33.3 µM	1.33
CC12CCC(=O)C(O1)C1C(=O)c3ccc4c(ccc5ccccc54)c3C(=O)C12 (centres undefined)	13	26.4	4.36	10.7	–	–	5.43	12.6	3.47	7.89 µM	5.52	14.3 µM	15.3 µM	36.1 µM	3.13	8.21 µM	4.15	8.35 µM	19 µM	8.47
N#CC1=C(N)NC(N2CCOCC2)=NC12Nc1ccccc1O2 (centres undefined)	23.5	70.2	31.8	> 100	–	–	34.2	> 100	34	> 100 µM	23	75 µM	33.8 µM	> 100 µM	34	> 100 µM	29.5	> 100 µM	> 100 µM	> 100
CC1CCCC(C#N)(NOC2=NCCN2)C1 (centres undefined)	35.4	> 100	> 100	> 100	–	–	> 100	> 100	12.9	46.2 µM	29	> 100 µM	60.3 µM	> 100 µM	18.9	46 µM	35.3	> 100 µM	28.2 µM	0.0758
CCCCCCC(=O)C/C(CCC(=O)N(Cc1ccccc1)Cc1ccccc1)=N\NC(N)=O	–	–	–	–	–	> 100 µM	–	–	–	> 100 µM	–	> 100 µM	–	> 100 µM	–	> 100 µM	–	> 100 µM	> 100 µM	–
CC(C)=Cc1cc(C)c2ccc(C)c3c2c1C(C)=C(O)C3=O	27.5	73.7	12.6	37.8	18	37.4 µM	15.7	51.3	44.6	> 100 µM	19.8	46.4 µM	0.0856 µM	> 100 µM	> 100	> 100 µM	–	–	> 100 µM	40.8
CC(/C=C/C(=O)c1sc(C(N)=S)nc1C)=C\c1ccccc1	–	–	–	–	–	> 100 µM	–	–	–	> 100 µM	–	> 100 µM	–	> 100 µM	–	> 100 µM	–	> 100 µM	> 100 µM	–
